Measured values published in publication PMC5352758, “Methods for 20S Immunoproteasome and 20S Constitutive Proteasome Determination Based on SPRI Biosensors” (Cellular and Molecular Bioengineering, 2017).
Where a SMILES comes first, the peptide text is derived from it. [ ]: non-standard residue; d: D form. hPhe = N[C@@H](CCc1ccccc1)C(=O)O; Nle = CCCC[C@H](N)C(=O)O

What was measured:
[1] = molecular target: T1, chymotrypsin (Bos taurus, UniProt P00766); assay: Inhibition of amidolytic activity of chymotrypsin (chromogenic substrate); type: biochemical; conditions: substrate Suc-Phe-pNA 8 mM, tris buffer pH 9.0, chymotrypsin 0.4 units mL−1, 3 min pre-incubation at 37 °C, 20 min incubation, absorbance 405 nm, average of triplicate
T1 construct: purchased Sigma (Schnelldorf, Germany)
Protocol: (§1) Determination of amidolytic activity was performed as described by Okada.[22] The synthetic amidolytic (chromogenic) substrates (Bzl-L-Arg-pNA.HCl for trypsin and Suc-Phe-pNA for chymotrypsin) are selected to give appropriate specificity for inhibition of the serine proteases. A chromophore (para-nitroaniline = pNA, yellow color) is cleaved from the C-terminus amide bond by the protease, and the absorbance can be detected.
(§2) A detailed description of the method is given below. The buffer and the enzyme solution contained: • […] buffer—0.5 mL (pH 7.5), enzyme: trypsin (0.4 units mL^−1), synthetic substrate: Bzl-L-Arg-pNA.HCl (0.2 mL, 8 mM); • tris buffer—0.6 mL (pH 9.0), enzyme: chymotrypsin (0.4 units mL^−1), synthetic substrate: Suc-Phe-pNA (0.2 mL, 8 mM).
(§3) The buffer and 0.1 mL of enzyme solution were added to 0.2 mL of the examined compound dissolved in 0.15 M NaCl (1–11) (as control 0.15 M NaCl). The mixture was incubated for 3 min at 37 °C, then the synthetic substrate was added. After 20 min of incubation, the reaction was stopped by adding 0.1 mL of 50% acetic acid, and the absorbance of the released p-nitroaniline was measured at 405 nm (Spekol 1300, Analytic Jena). Every value represents the average of triplicate determination. The IC50 value was taken as the concentration of the inhibitor which decreased the absorbance at 405 nm by 50% compared with the absorbance measured under the same conditions without the inhibitor.

[2] = molecular target: T2, 20Si (immunoproteasome) (Homo sapiens, UniProt P28062+P28065+P40306); assay: SPRI measurement of ability of immobilized potential receptor to bind 20Si; type: binding; conditions: for Selectivity of binding 20Si vs 20Sc, in words (text summary of Table 4): 20Si or 20Sc 2.8 μg mL−1; for Ability to bind 20Si: receptor at 1, 10, 100 μg mL−1, 20Si 2.8 μg mL−1, SPRI signal increase of less than 20% = lack of ability to bind
T2 construct: purchased www.vivabioscience.com (Basepoint Business Centre, United Kingdom)
Protocol: (§4) Chips were immersed in an ethanolic solution 1-octadecanothiol (ODM) ([…]) for 24 h at room temperature. Then the biosensors have been repeatedly washed in ethanol and water, and dried under a stream of argon. Chips prepared in this way can be stored and used for subsequent measurements. […] After that time, the process of immobilization of the inhibitor by hydrophobic interaction was completed. A biosensor prepared in this way should be used directly for analysis. A diagram of the chip appears in Fig. 1a.
(§5) The chip was immersed in a vessel with an ethanolic solution of cysteamine for 2 h at room temperature. After 2 h, the chip was rinsed with ethanol and water and dried under a stream of argon. A chip prepared in this manner can be stored and used for subsequent measurements. Each of the synthesised inhibitor solutions was activated with NHS (250 mM) and EDC (250 mM) in the ratio 1: 1 and carbonate buffer (pH 8.5) as a suitable reaction medium. Next, 3 μL of this solution was placed on each of nine active sites on the amine-modified surface. The closed vessel with the biosensor and under appropriate conditions of humidity was incubated at 37 °C for 1 h. Next, the biosensor was rinsed with water and dried under a stream of argon. A biosensor prepared in this way should be used directly for testing and analysis.
(§6) SPRI measurements for the protein biosensor array were performed as described elsewhere.[8],[11] Briefly, the measurements were performed at a fixed angle of incident light and the reflectivity was simultaneously measured cross an entire chip surface. The contrast values obtained for all pixels across a particular sample single spot were integrated. The signal was measured twice on the basis of registered images, after immobilization of the inhibitor and after immunoproteasome interaction. The SPRI signal, which is proportional to the coupled protein, was obtained by subtraction between the signals before and after interaction with protein for each spot separately.
(§7) A background correction was applied i.e. some of the sites on the biosensor covered with PBS buffer were used as a control. Non-specific binding was monitored by measuring the SPRI signal at a site on the chip without the receptor (ligand). Minimization of non-specific binding was achieved by preparing samples in PBS buffer (NaCl an KCl concentration ~200 mM) at pH 7.4 near the isoelectric point of the protein.
(§8) A crucial factor for the application of newly synthesised potential receptors is their selectivity. Selectivity for 20Si or 20Sc was checked using SPRI measurements. […] Measurements were performed as described above at three different concentrations of potential receptors (1, 10, 100 μg mL^−1) at a fixed concentration of 20Si (2.8 μg mL^−1) or 20Sc (2.8 μg mL^−1). An increase in the SPRI signal of less than 20% was considered to imply lack of ability to bind 20Si or 20Sc.

[3] = molecular target: 20Sc (constitutive proteasome; commercially available proteasome) (Homo sapiens, UniProt P28072+P28074+Q99436); assay: SPRI measurement of ability of immobilized potential receptor to bind 20Sc; type: binding, mammalian; conditions: receptor at 1, 10, 100 μg mL−1, 20Sc 2.8 μg mL−1, SPRI signal increase of less than 20% = lack of ability to bind
Protocol: as §4, §5, §6, §7, §8

[4] = tested on: trypsin; assay: Inhibition of amidolytic activity of trypsin (chromogenic substrate); type: biochemical; conditions: substrate Bzl-L-Arg-pNA.HCl 8 mM, borane buffer pH 7.5, trypsin 0.4 units mL−1, 3 min pre-incubation at 37 °C, 20 min incubation, absorbance 405 nm, average of triplicate
Protocol: as §1, §2, §3

[5] = molecular target: T3, 20Si (Homo sapiens, UniProt P28062+P28065+P40306); assay: Specificity of SPRI biosensor: 20Si determination in the presence of an interferent; type: binding; conditions: added 20Si 2.80 μg mL−1; for Found 20Si: tripeptide as receptor via cysteamine linker, 20Sc 2.8 μg mL−1, ratio 20Si vs. 20Sc 1:1, 95% confidence limits, 12 measurements; for Recovery: tripeptide as receptor, 20Sc 2.8 μg mL−1, ratio 1:1
T3 construct: purchased www.vivabioscience.com (Basepoint Business Centre, United Kingdom)
Protocol: as §6, §7
The specificity of the developed biosensor, especially against 20Sc, is crucial factor for the device’s application. Specificity was investigated at different ratios of 20Si and 20Sc and various 20Si concentrations. Additionally, tolerance of human albumin was checked.
This investigation is crucial for the determination of 20Si in the presence of 20Sc. Series of model solutions containing both 20Si (2.8 μg mL^−1) and 20Sc (2.8 μg mL^−1) were determined using four developed biosensors specific for 20Si. The confidence limits of the results are a measure of measurement precision.

Structure (SMILES) | IC50 [1] | Selectivity of binding 20Si vs 20Sc, in words (text summary of Table 4) [2] | Ability to bind 20Si [2] | Ability to bind 20Sc [3] | IC50 [4] | Found 20Si [5] | Recovery [5]
CC(C)C[C@H](NC(=O)[C@@H](N)Cc1ccccc1)C(=O)N[C@@H](Cc1ccccc1)C(=O)O [compound 1, H-Phe-Leu-Phe-OH] (H-Phe-Leu-Phe-OH) | 178 ± 14 µM | able to bind both 20Si and 20Sc | + (+, bound) | + (+, bound) | – | – | –
N[C@@H](Cc1ccccc1)C(=O)N[C@@H](Cc1ccccc1)C(=O)N[C@@H](Cc1ccccc1)C(=O)O [compound 2, H-Phe-Phe–Phe-OH] (H-Phe-Phe-Phe-OH) | 185 ± 14 µM | able to bind both 20Si and 20Sc | + (+, bound) | + (+, bound) | – | – | –
CC(C)C[C@H](N)C(=O)N[C@@H](Cc1ccccc1)C(=O)N[C@@H](Cc1ccccc1)C(=O)O [compound 4, H-Leu-Phe–Phe-OH] (H-Leu-Phe-Phe-OH) | 184 ± 14 µM | does not capture any form of 20S | – (−, lack of bonding) | – (−, lack of bonding) | – | – | –
CC(C)C[C@H](NC(=O)[C@H](CC(C)C)NC(=O)[C@@H](N)Cc1ccccc1)C(=O)O [compound 5, H-Phe-Leu–Leu-OH] (H-Phe-Leu-Leu-OH) | 184 ± 14 µM | selective inhibition of 20Si | + (+, bound) | – (−, lack of bonding) | – | 2.97 ± 0.40 µg/mL | 106%
C[C@H](NC(=O)[C@@H](N)Cc1ccccc1)C(=O)N[C@@H](Cc1ccccc1)C(=O)O [compound 3, H-Phe-Ala-Phe-OH] (H-Phe-Ala-Phe-OH) | 187 ± 14 µM | able to bind both 20Si and 20Sc | + (+, bound) | + (+, bound) | – | – | –

The next lines start with the values.

IC50 [1] | Selectivity of binding 20Si vs 20Sc, in words (text summary of Table 4) [2] | Ability to bind 20Si [2] | Ability to bind 20Sc [3] | IC50 [4] | Found 20Si [5] | Recovery [5] | Structure (SMILES)
174 ± 13 µM | selectivity to 20Sc | – (−, lack of bonding) | + (+, bound) | – | – | – | CC(C)C[C@H](NC(=O)[C@H](Cc1ccccc1)NC(=O)[C@@H](N)Cc1ccccc1)C(=O)O [compound 6, H-Phe-Phe-Leu-OH] (H-Phe-Phe-Leu-OH)
1920 ± 150 µM | selective inhibition of 20Si | + (+, bound) | – (−, lack of bonding) | 18000 ± 1440 µM | 2.99 ± 0.47 µg/mL | 107% | CCCC[C@H](NC(=O)[C@H](CC(C)C)NC(=O)[C@@H](N)Cc1ccccc1)C(=O)O [compound 11, H-Phe-Leu-nLeu-OH] (H-Phe-Leu-[Nle]-OH)
1830 ± 150 µM | selective inhibition of 20Si | + (+, bound) | – (−, lack of bonding) | 12000 ± 960 µM | 2.89 ± 0.60 µg/mL | 103% | CC(C)C[C@H](NC(=O)[C@H](Cc1ccccc1)NC(=O)[C@@H](N)CC(C)C)C(=O)O [compound 10, H-Leu-Phe-Leu-OH] (H-Leu-Phe-Leu-OH)
185 ± 14 µM | able to bind both 20Si and 20Sc | + (+, bound) | + (+, bound) | 44 ± 3 µM | – | – | N[C@@H](Cc1ccccc1)C(=O)N[C@@H](CCc1ccccc1)C(=O)N[C@@H](Cc1ccccc1)C(=O)O [compound 7, H-Phe-hPhe-Phe-OH] (H-Phe-[hPhe]-Phe-OH)
141 ± 11 µM | selectivity to 20Sc | – (−, lack of bonding) | + (+, bound) | – | – | – | N[C@@H](Cc1ccccc1)C(=O)N[C@@H](Cc1ccccc1)C(=O)O [compound 9, H-Phe-Phe-OH] (H-Phe-Phe-OH)
152 ± 12 µM | selective inhibition of 20Si | + (+, bound) | – (−, lack of bonding) | 79 ± 6 µM | 2.88 ± 0.44 µg/mL | 103% | CC(C)C[C@H](NC(=O)[C@@H](N)CC(C)C)C(=O)N[C@@H](Cc1ccccc1)C(=O)O [compound 8, H-Leu-Leu-Phe-OH] (H-Leu-Leu-Phe-OH)
